A short description of assay [1]: Induction of ATP-induced cytosolic calcium ion concentration in mouse DRG neurons assessed as neuron population at 10 microg/ml measured after 1 hr by Fura2AM dye based fluorescence microscopic. Format: functional. Particulars: dose 10 µg/ml.
The nature of assay [2]: Induction of Kcl-induced cytosolic calcium ion concentration in mouse DRG neurons in response to Kcl at 10 microg/ml measured after 1 hr by Fura2AM dye based fluorescence microscopic analysis. The following applies: dose 10 µg/ml. Format: functional, Neuron.
The nature of assay [3]: Reduction in ATP-induced cytosolic calcium ion concentration in mouse DRG neurons at 10 microg/ml measured after 1 hr by Fura2AM dye based fluorescence microscopic analysis in response to ATP. The format is functional, Neuron. Set-up: scale not given: the % may be the effect or the level left. The following applies: dose 10 µg/ml.
Assay [4] is described as follows: (§1) Reduction in Kcl-induced cytosolic calcium ion concentration in mouse DRG neurons at 10 microg/ml measured after 1 hr by Fura2AM dye based fluorescence microscopic analysis in response to Kcl. The format is functional, Neuron. Set-up: scale not given: the % may be the effect or the level left. The following applies: dose 10 µg/ml.
Assay [5] is described as follows: Induction of cytosolic calcium ion concentration in mouse DRG neurons at 10 microg/ml measured after 1 hr by Fura2AM dye based fluorescence microscopic analysis. Particulars: dose 10 µg/ml. Format: functional, Neuron.
Assay [6] in a line: Induction of ATP and Kcl-induced increase in cytosolic Ca2+ ion concentration mouse […] assessed as neuron population at 10 uM measured after 1 hr by Fura2AM dye based fluorescence microscopic analysis. Format: functional.
Assay [7] can be described thus: Reduction of ATP and Kcl-induced increase in cytosolic Ca2+ ion concentration mouse […] assessed as neuron population at 10 uM measured after 1 hr by Fura2AM dye based fluorescence microscopic analysis. The format is functional. Set-up: scale not given: the % may be the effect or the level left.
The nature of assay [8]: Induction of cytosolic calcium ion concentration in mouse microglia cells at 10 uM measured after 1 hr by Fura2AM dye based fluorescence microscopic analysis. Format: functional.
A short description of assay [9]: Induction of ATP and Kcl-induced increase in cytosolic Ca2+ ion concentration mouse peptidergic nociceptive DRG neuron assessed as neuron population at 10 uM measured after 1 hr by Fura2AM dye based fluorescence microscopic analysis. Format: functional.
A short description of assay [10]: Reduction of ATP and Kcl-induced increase in cytosolic Ca2+ ion concentration mouse peptidergic nociceptive DRG neuron assessed as neuron population at 10 uM measured after 1 hr by Fura2AM dye based fluorescence microscopic analysis. The format is functional. Further details: scale not given: the % may be the effect or the level left.
The nature of assay [11]: Induction of cytosolic calcium ion concentration in mouse peptidergic nociceptive DRG neuron at 10 uM measured after 1 hr by Fura2AM dye based fluorescence microscopic analysis. Format: functional.
Assay [12] in a line: Induction of ATP and Kcl-induced increase in cytosolic Ca2+ ion concentration mouse non-peptidergic nociceptive DRG neuron assessed as neuron population at 10 uM measured after 1 hr by Fura2AM dye based fluorescence microscopic analysis. Format: functional.
Assay [13] in a line: Reduction of ATP and Kcl-induced increase in cytosolic Ca2+ ion concentration mouse non-peptidergic nociceptive DRG neuron assessed as neuron population at 10 uM measured after 1 hr by Fura2AM dye based fluorescence microscopic analysis. The format is functional. Set-up: scale not given: the % may be the effect or the level left.
Assay [14] is described as follows: Induction of cytosolic calcium ion concentration in mouse non-peptidergic nociceptive DRG neuron at 10 uM measured after 1 hr by Fura2AM dye based fluorescence microscopic analysis. The format is functional.
A short description of assay [15]: Induction of ATP and Kcl-induced increase in cytosolic Ca2+ ion concentration mouse DRG other neuron subtype assessed as neuron population at 10 uM measured after 1 hr by Fura2AM dye based fluorescence microscopic analysis. The format is functional.
Assay [16] is described as follows: Reduction of ATP and Kcl-induced increase in cytosolic Ca2+ ion concentration mouse DRG other neuron subtype assessed as neuron population at 10 uM measured after 1 hr by Fura2AM dye based fluorescence microscopic analysis. The format is functional. Set-up: scale not given: the % may be the effect or the level left.
Assay [17] can be described thus: Induction of cytosolic calcium ion concentration in mouse DRG other neuron subtype at 10 uM measured after 1 hr by Fura2AM dye based fluorescence microscopic analysis. The format is functional.
The subject of assay [18] is Neuron. Put plainly: Effect on mouse GABA receptor expressed in mouse peptidergic nociceptive DRG neurons at 10 uM. Format: tissue-based.
Assay [19] deals with Neuron. Put plainly: Effect on mouse GABA receptor expressed in mouse non-peptidergic nociceptive DRG neurons at 10 uM. Format: tissue-based.
The subject of assay [20] is Neuron. Put plainly: Effect on mouse GABA receptor expressed in mouse C-low-threshold mechanoreceptors DRG neurons at 10 uM. Format: tissue-based.
In assay [21] the test system is Neuron. Put plainly: Effect on mouse GABA receptor expressed in mouse DRG neurons at 10 uM using cold thermosensors. Format: tissue-based.
In assay [22] the test system is Neuron. The assay is described as §1. Format: functional. The following applies: dose 10.0 µg/ml.

The source made the active and inactive calls.

On to `C[C@H](CC[C@H](O)C(C)(C)O)[C@H]1CC[C@H]2[C@@H]3C(=O)C=C4C[C@@H](O)CC[C@]4(C)[C@H]3CC[C@]12C`, for which the Activity in assay [1] came to 21%; in assay [2], 6%; in assay [3], 15%; in [4] it was 49%; in assay [5], 58%; in [6], 3%. The Activity in assay [7] is given as 24%; in assay [8] it was 4%; in [9] it was 45%; in [10] it was 4%; in assay [11], 37%; in [12] it was 26%. Besides, the Activity in assay [13] was found to be 7%; in assay [14] it was 15%; in assay [15] it was 5%; in [16] it was 3%; in assay [17], 2%.

Turning to `C[C@H](CCC(=O)O)[C@H]1CC[C@H]2[C@@H]3[C@H](O)C[C@@H]4C[C@H](O)CC[C@]4(C)[C@H]3C[C@H](O)[C@]12C`, the result with Neuron [18], with Neuron [19], in the assay with Neuron [20] and with Neuron [21] was inactive.

For the compound `CC(C)C(=O)CC[C@@H](C)[C@H]1CC[C@H]2[C@@H]3C(=O)C=C4C=CCC[C@]4(C)[C@H]3CC[C@]12C`, the Activity in [1] is 11%; in assay [2], 19%; in [3] it was 13%; in [4], 1%; in assay [5], 6%.

Turning to `CC(C)[C@@H](C)/C=C/[C@@H](C)[C@H]1CC[C@H]2C3=CC=C4C[C@@H](O)CC[C@]4(C)[C@H]3CC[C@]12C`, the result in the assay with Neuron [18], in the assay on Neuron [19], in the assay on Neuron [20] and in the assay on Neuron [21] was inactive.

With `CC(C)CCC[C@@H](C)[C@H]1CC[C@H]2[C@@H]3CC=C4C[C@@H](O)CC[C@]4(C)[C@H]3CC[C@]12C`, the result in the assay with Neuron [18], with Neuron [19], with Neuron [20] and in the assay on Neuron [21] was inactive.

With `C[C@H](CC[C@@H](O)C(C)(C)O)[C@H]1CC[C@H]2[C@@H]3C(=O)C=C4C[C@H](O)CC[C@]4(C)[C@H]3CC[C@]12C`, the Activity in assay [1] is 33%; in assay [2] it was 54%; in [3], 3%; in [5], 19%. Besides, the result with Neuron [22] was inactive.

For `C[C@H](CCC(=O)C(C)(C)O)[C@H]1CC[C@H]2[C@@H]3C(=O)C=C4C=CCC[C@]4(C)[C@H]3CC[C@]12C`, the Activity is 9% in [1]; 22% in [2]; 17% in assay [3]; 2% in [4]; 35% in assay [5].

For `C[C@H](CC[C@@H](O)C(C)(C)O)[C@H]1CC[C@H]2[C@@H]3C(=O)C=C4C=CCC[C@]4(C)[C@H]3CC[C@]12C`, the Activity in assay [1] is on record as 36%; in [2], 38%; in assay [3], 3%; in assay [4], 4%; in assay [5] it was 3%.

The record behind these values is ChEMBL document CHEMBL5032490, “Neuroactive Type-A γ-Aminobutyric Acid Receptor Allosteric Modulator Steroids from the Hypobranchial Gland of Marine Mollusk, Conus geographus” (J Med Chem, 2021).
